Test results reported in patent US20060160703A1, “Selective herbicides based on substituted cyclic dicarbonyl compounds and safeners” (priority 2003, published 2006).

Assays:
Assay type in all cases: in vivo
Summer barley [1] = assay: Greenhouse trial, post-emergence, safener one day before (Example 2); settings: combinations: safener 100 g/ha one day before
Experimental: (§1) Seeds of monocotyledonous and dicotyledonous weed and crop plants are placed into sandy loam in wood fiber pots or in plastic pots, covered with soil and cultivated in a greenhouse, including during the vegetation period outdoors outside of the greenhouse, under good growth conditions. Two-three weeks after sowing, the test plants are treated at the one- to three-leaf stage. […], formulated as wettable powders (WP) or emulsifiable concentrates (EC) are, in various dosages with a water application rate of 300 l/ha (converted), with added wetting agent (0.2 to 0.3%) sprayed onto the plants and the surface of the soil. Three to four weeks after the treatment of the test plants, the effect of the preparations is rated visually in comparison to untreated controls (herbicidal effect in percent (%): 100% effect=plants have died, 0% effect=like control plants).
(§2) If it is additionally to be tested as to whether safeners can improve the plant compatibility of test substances in the case of crop plants, the following options are used for applying the safener:
(§3) before the application of the test substances, the crop plants are sprayed with the safener at a certain application rate per hectare (usually 1 day before the application of the test substances).
(§4) By comparing the effect of the test substances on crop plants without or with safener treatment, it is possible to assess the effect of the safener substance. [drawing 61] [drawing 62]
(§5) Greenhouse trial/Post-emergence
(§6) One day before the application of the compounds of the formula (I), the crop plants are treated with the safener (application rate 100 g/ha).

Summer wheat [2] = assay: as above; settings: combinations: safener 100 g/ha one day before
Experimental: as §1, §2, §3, §4, §5, §6

[3] = tested on: Corn of the Cultivar Lorenzo; assay: Greenhouse trial, post-emergence, corn (Example 3)
Experimental: as §1, §2
seeds of the crop plants are, before sowing, dressed with the safener substance (the amount of safener is stated in percent, based on the weight of the seed)
as §3, §4
Greenhouse Trial/Post-Emergence
Corn of the Cultivar Lorenzo
Addition of Safener: • a) Before sowing, seeds of the crop plants are dressed with the compound of the formula (IIe-5) (0.5% of safener, based on the weight of the seeds). • b) One day before the application of the compounds of the formula (I), the crop plants are treated with the compound of the formula (IIe-5) (application rate 100 g/ha). • c) One day before the application of the compounds of the formula (I), the crop plants are treated with isoxadifen (application rate 100 g/ha)
For the spray treatment, the herbicide was formulated as WP20 and the safener as WP10.

Winter barley = assay: Outdoor trial, post-emergence, tank mix (Example 1); settings: herbicide 0.120 kg/ha, combinations: tank mix mefenpyr-diethyl:compound (I) = 2:1
Experimental: as §1, §2
(§7) the safener is applied together with the test substance as a tank mix (the amount of safener is stated in g/ha or as a ratio, based on the herbicide).
as §4
(§8) Outdoor trial/Post-emergence
(§9) Ratio mefenpyr-diethyl:compound of the formula (I)=2:1

Winter wheat = assay: as above; settings: herbicide 0.120 kg/ha, combinations: tank mix mefenpyr-diethyl:compound (I) = 2:1
Experimental: as §1, §2, §7, §4, §8, §9

Summer barley [4] = assay: as above; settings: herbicide 0.120 kg/ha, combinations: tank mix mefenpyr-diethyl:compound (I) = 2:1, 100% = plants have died, 0% = like control
Experimental: as §1, §2, §7, §4, §8, §9

Summer wheat [5] = assay: as above; settings: herbicide 0.120 kg/ha, combinations: tank mix mefenpyr-diethyl:compound (I) = 2:1
Experimental: as §1, §2, §7, §4, §8, §9

[6] = herbicide 0.013 kg/ha; greenhouse, post-emergence; corn cultivar Lorenzo; safener by method a), b) or c) as
[7] = herbicide 0.025 kg/ha; greenhouse, post-emergence; corn cultivar Lorenzo; safener by method a), b) or c) as
[8] = herbicide 0.050 kg/ha; greenhouse, post-emergence; corn cultivar Lorenzo; safener by method a) IIe-5 seed dressing 0.5%, b) IIe-5 100 g/ha one day before, c) isoxadifen 100 g/ha one day before

Compound	herbicidal effect in percent, Summer barley (Summer barley [1]; herbicide 0.025 kg/ha) [%]	herbicidal effect in percent, Summer barley (Summer barley [1]; herbicide 0.050 kg/ha) [%]	herbicidal effect in percent, Summer barley (Summer barley [1]; herbicide 0.100 kg/ha) [%]	herbicidal effect in percent, Summer wheat (Summer wheat [2]; herbicide 0.025 kg/ha) [%]	herbicidal effect in percent, Summer wheat (Summer wheat [2]; herbicide 0.050 kg/ha) [%]	herbicidal effect in percent, Summer wheat (Summer wheat [2]; herbicide 0.100 kg/ha) [%]	herbicidal effect in percent, Corn [3, 6] [%]	herbicidal effect in percent, Corn [3, 7] [%]	herbicidal effect in percent, Corn [3, 8] [%]	herbicidal effect in percent, Winter barley (Winter barley) [%]	herbicidal effect in percent, Winter wheat (Winter wheat) [%]	herbicidal effect in percent, Summer barley (Summer barley [4]) [%]	herbicidal effect in percent, Summer wheat (Summer wheat [5]) [%]
CCc1cc(Cl)cc(Br)c1C1(Cl)C(=O)NC2(CCCCC2)C1=O (stereo not drawn) [I-1-5]	20	50	92	30	60	65	–	–	–	–	–	–	–
Cc1cc(-c2ccc(Cl)cc2)cc(C)c1C1(Cl)C(=O)N2CCCCN2C1=O [I-4-1]	20	80	80	20	60	60	–	–	–	–	–	–	–
CCc1cc(Br)cc(CC)c1C1(Cl)C(=O)NC2(CCCCC2)C1=O (stereo not drawn) [I-1-4]	–	–	10	–	–	10	–	–	–	–	–	–	–
CCc1cc(Br)cc(CC)c1C1(Cl)C(=O)NC(C)(C)C1=O (stereo not drawn) [I-1-3]	–	–	–	–	–	–	0	0	85	–	–	–	–
CCc1cc(Cl)cc(Cl)c1C1(Cl)C(=O)NC2(CCC(OC)CC2)C1=O (stereo not drawn) [I-1-1]	–	–	–	–	–	–	99	100	100	30	20	40	15
Cc1cc(-c2ccc(Cl)cc2)cc(C)c1C1(Cl)C(=O)N2CCOCCN2C1=O [I-4-2]	40	95	97	60	97	97	–	–	–	–	–	–	–
